From PMC5374441 (Scientific Reports, 2017) come the findings set out here.

For assay [1], the target named is T1, Ls-AChBP (Lymnaea stagnalis, UniProt P58154).
T1 construct: made in house
The experiment in a line: biochemical. It counts as binding. The settings on record: SEM.

In assay [2] the target is T2, Ac-AChBP (Aplysia californica, UniProt Q8WSF8).
T2 construct: made in house
The assay can be described thus: biochemical. It counts as binding. The settings on record: SEM.

Assay [3] has as its target human α7 nAChR (Homo sapiens, UniProt P36544). The experiment in a line: cell-based. The settings on record: SEM.
Assay [4] concerns the target human α3β4 nAChR (Homo sapiens, UniProt P30926+P32297). The assay can be described thus: cell-based.

Bridge positions count the residues as written; N and C are the ends. Peptide text beside a SMILES is read from it. A value given as a limit tells only on which side of the number the result lay.

T1 sequence (P58154 20-229 limits assumed): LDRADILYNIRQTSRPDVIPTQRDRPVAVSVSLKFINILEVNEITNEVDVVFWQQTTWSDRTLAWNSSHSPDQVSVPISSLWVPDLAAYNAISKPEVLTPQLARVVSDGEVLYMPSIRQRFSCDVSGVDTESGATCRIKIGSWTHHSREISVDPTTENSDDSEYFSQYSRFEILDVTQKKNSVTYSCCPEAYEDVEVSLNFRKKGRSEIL
human α7 nAChR, sequence (P36544 23-502 limits assumed): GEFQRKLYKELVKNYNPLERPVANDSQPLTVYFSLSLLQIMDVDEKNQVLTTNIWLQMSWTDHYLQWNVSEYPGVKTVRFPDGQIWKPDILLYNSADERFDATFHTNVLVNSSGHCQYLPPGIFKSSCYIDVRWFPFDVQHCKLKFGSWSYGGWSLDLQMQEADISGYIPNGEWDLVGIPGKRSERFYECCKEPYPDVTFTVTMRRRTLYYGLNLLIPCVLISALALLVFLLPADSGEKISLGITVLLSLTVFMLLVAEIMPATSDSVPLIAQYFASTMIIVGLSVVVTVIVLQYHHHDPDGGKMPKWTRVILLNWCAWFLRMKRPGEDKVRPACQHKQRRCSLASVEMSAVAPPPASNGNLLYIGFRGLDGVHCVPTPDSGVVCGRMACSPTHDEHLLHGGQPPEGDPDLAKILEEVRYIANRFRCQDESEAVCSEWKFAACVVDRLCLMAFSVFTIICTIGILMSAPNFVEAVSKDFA
human α3β4 nAChR, sequence (P32297 32-505 limits assumed): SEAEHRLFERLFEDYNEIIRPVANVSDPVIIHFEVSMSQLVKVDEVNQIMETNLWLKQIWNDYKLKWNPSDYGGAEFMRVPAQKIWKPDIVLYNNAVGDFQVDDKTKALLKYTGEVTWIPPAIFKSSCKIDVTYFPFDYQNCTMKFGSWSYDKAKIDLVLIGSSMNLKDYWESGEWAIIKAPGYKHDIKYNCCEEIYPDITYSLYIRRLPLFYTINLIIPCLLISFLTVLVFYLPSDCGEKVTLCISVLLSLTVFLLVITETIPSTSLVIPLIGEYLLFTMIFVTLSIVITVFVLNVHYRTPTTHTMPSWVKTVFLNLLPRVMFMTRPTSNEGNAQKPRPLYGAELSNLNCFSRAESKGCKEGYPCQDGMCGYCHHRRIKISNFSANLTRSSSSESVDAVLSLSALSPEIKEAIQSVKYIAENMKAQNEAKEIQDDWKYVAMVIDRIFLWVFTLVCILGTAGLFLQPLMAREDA
human α3β4 nAChR, sequence (P30926 22-498 limits assumed): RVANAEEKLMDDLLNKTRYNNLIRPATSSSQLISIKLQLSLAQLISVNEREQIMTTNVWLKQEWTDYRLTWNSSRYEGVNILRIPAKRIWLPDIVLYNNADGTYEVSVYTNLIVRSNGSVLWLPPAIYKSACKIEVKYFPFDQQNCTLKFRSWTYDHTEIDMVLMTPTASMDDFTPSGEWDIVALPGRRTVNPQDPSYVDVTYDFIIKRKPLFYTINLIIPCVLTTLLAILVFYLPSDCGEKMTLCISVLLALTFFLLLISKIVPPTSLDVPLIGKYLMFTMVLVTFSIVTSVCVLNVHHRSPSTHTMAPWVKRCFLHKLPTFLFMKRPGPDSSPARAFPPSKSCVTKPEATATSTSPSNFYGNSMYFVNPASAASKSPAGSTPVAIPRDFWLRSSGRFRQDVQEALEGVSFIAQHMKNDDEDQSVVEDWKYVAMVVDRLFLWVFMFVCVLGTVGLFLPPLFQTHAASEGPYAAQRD
T2 sequence (Q8WSF8 18-236 limits assumed): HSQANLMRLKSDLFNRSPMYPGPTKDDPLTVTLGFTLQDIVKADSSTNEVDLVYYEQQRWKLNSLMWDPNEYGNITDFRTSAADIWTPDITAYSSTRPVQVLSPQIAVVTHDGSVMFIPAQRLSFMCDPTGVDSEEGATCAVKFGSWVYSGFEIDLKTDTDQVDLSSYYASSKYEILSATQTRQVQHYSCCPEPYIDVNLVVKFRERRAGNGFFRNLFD

Turning to `CC[C@H](C)[C@@H]1NC(=O)[C@H](CC(N)=O)NC(=O)[C@@H]2CCCN2C(=O)[C@H](CC(N)=O)NC(=O)[C@H](CC(N)=O)NC(=O)[C@H](C(C)C)NC(=O)[C@H](CCCNC(=N)N)NC(=O)[C@@H]2CSSC[C@H](NC(=O)CNC(=O)[C@@H](N)CO)C(=O)N[C@@H](CSSC[C@@H](C(N)=O)NC1=O)C(=O)N[C@@H](CO)C(=O)N[C@@H](CC(N)=O)C(=O)N1CCC[C@H]1C(=O)N[C@@H](C)C(=O)N2` [LsIA] (H-SGCCSNPACRVNNPNIC-NH2; disulfide 3-9, 4-17), the IC50 in assay [1] is 0.21 ± 0.04 µM; in assay [2] it was 0.00544 ± 0.00035 µM; in assay [3] it was 0.07 ± 0.007 µM; in assay [4], over 10 µM.
